Measurements as given in patent US4060526A, “1-Heterocyclic alkyl-1,2,3,4-tetrahydroquinazolinones and analgesic intermediates thereof” (priority 1976, dated 1977).
Like-named read-outs stand apart in the source and are kept apart here.

Assays:
in vivo [1] = test: in vivo
acute toxicity, rat = conditions: in vivo, sc; Rat s.c.; preliminary result
Method: (§1) Compounds were administered in 2% clearjel as a suspension except in
(§2) Toxicities have only been run with male animals to date.

acute toxicity, cat = conditions: in vivo
Method: as §1, §2

morphine analgesia = test: antagonism of morphine analgesia (Harris & Pearson, modified D'Amour & Smith); assay type: in vivo; conditions: rats; words
Method: (§3) The compounds of this invention were tested for their ability to antagonize narcotic analgesics by two different tests. […] Another test used for narcotic antagonist activity was published by Harris & Pearson. This test is modification of the D'Amour & Smith method.
(§4) In the original method the time required for rats to flick their tails following application of a heat stimulus is taken as a measure of analgesic potency.

[2] = analgesic activity and general pharmacology, conventional testing methods; assay type: in vivo; conditions: words
Description: Ten animals are used for each dose level.
Ten animals are used at each dose level.

[3] = system: metrazol induced convulsions; test: anticonvulsant activity, pentylenetetrazol (Metrazol) convulsions; assay type: in vivo; conditions: mice, words
[4] = phenylbenzoquinone writhing test, mouse; assay type: in vivo; conditions: mouse, in vivo
Method: (§7) In addition to the hot plate method, the writhing test described by Sigmund et al., Soc. Exp. Biol. and Med. 95:729 (1957) has been applied in both rats and mice as further indication of analgesics. […] The stimulus of intraperitoneal injection of phenylbenzoquinone results in a writhing syndrome characterized by periodic twisting and stretching of the body with extension of the hind legs. […] The dose of compound protecting 50% of the animals is determined and expressed as the ED50. Ten animals are used at each dose level.

[5] = system: phenylbenzoquinone writhing; test: phenylbenzoquinone writhing test, mouse; assay type: in vivo
Method: as §7

in vivo [6] = conditions: ip
heat stimulus [7] = test: D'Amour Smith Rat Tail Flick; assay type: in vivo; conditions: for ED50: Rattus norvegicus
Description: as §4

[8] = system: pinna reflex, corneal reflex; test: pinna / corneal reflex test (Witkin et al.), tranquilizer activity; assay type: in vivo, mouse; conditions: for ratio of ED50 corneal/ED50 pinna: mouse, exceeding unity = tranquilizer type action; for tranquilizer classification from corneal/pinna ratio: words
Description: (§5) A tranquil sedation has been observed in mice, rats, cats and monkeys following administration of these compounds in doses exceeding those that are required for analgesia. In addition further indirect evidence for tranquilizer activity has been obtained by application of a method described by Witkin et al., J. Pharmacol, and Exp. Ther. 126:330 (1959)
This test is based upon observations that the pinna reflex of the mouse is blocked at relatively low doses of major tranquilizer drugs whereas very high doses are needed to block the corneal reflex. A ratio of ED50 corneal/ED50 pinna exceeding unity is taken as evidence of tranquilizer type action. […].

NARCOTIC ANTAGONISM = test: narcotic antagonism (Table IV); assay type: in vivo; conditions: I.P.
Method: as §3, §4

intestinal motility = test: gastrointestinal motility suppression (Brittain & Collier, modified), charcoal; assay type: in vivo; conditions: mice, words
[9] = system: oxymorphone induced mydriasis; test: antagonism of oxymorphone induced mydriasis; assay type: in vivo, mice; conditions: words
Method: as §3

[10] = phenylbenzoquinone writhing test, rat; assay type: in vivo; conditions: rat, in vivo
Description: (§6) […]. […] Ten animals are used at each dose level.

[11] = system: phenylbenzoquinone writhing; test: phenylbenzoquinone writhing test, rat; assay type: in vivo
Description: as §6

in vivo [12] = conditions: mouse
[13] = system: isolated guinea pig ileum (Histamine); test: isolated guinea pig ileum screen, block of histamine (antihistaminic); conditions: for Amount to produce a 50% block of Histamine: isolated guinea pig ileum, 37° C.; for antihistaminic activity compared with diphenhydramine: words
Description: Contractions were elicited by histamine phosphate. The concentration of compound required to block these contractions when added to the tissue bath prior to introduction of histamine is taken as evidence of antihistaminic action.

[14] = hypothermic effect, rectal temperature; assay type: in vivo; conditions: mice; words
Method: Rectal temperatures were recorded periodically in mice following administration of 740-222 by oral route.

[15] = mouse hot plate test (Eddy and Leimbach, modified); conditions: mouse, in vivo, LD50 /ED50 H.P.
heat stimulus [16] = test: mouse hot plate test (Eddy and Leimbach, modified); conditions: for ED50: Mus musculus, read-out: Hot Plate ED50
[17] = system: isolated guinea pig ileum (Acetylcholine); test: isolated guinea pig ileum screen, block of acetylcholine
MOUSE TAIL STIMULATION = test: mouse tail stimulation analgesia; conditions: S.C.
in vivo [18] = test: in vivo; design: species or system mice, rats, cats and monkeys
Description: as §5

solubility = assay type: physicochemical; conditions: words
[19] = ip, Mouse i.p., read-out: LD50 (48 hr)
[20] = po, Mouse p.o., read-out: LD50 (48 hr)
[21] = sc, Mouse s.c., read-out: LD50 (48 hr)
[22] = ip, Cat i.p., preliminary result (740-222)
[23] = po, Mouse p.o., read-out: LD50 /ED50 Writhing

Structure (SMILES): NC(=O)c1ccccc1NCCN1CCN(c2ccccc2)CC1 [Example 730-372A, 2-[2-(4-[1-Phenyl]piperazinyl)ethylamino]-benzamide]
- LD50 at 48 h (in vivo [1]; [19]): > 1000 mg/kg
- LD50 at 48 h (in vivo [1]; iv, Mouse i.v., solution (5mg/ml) in distilled water, read-out: LD50 (48 hr)): 50 mg/kg
- LD50 at 48 h (in vivo [1]; [20]): > 1000 mg/kg
- LD50 at 48 h (in vivo [1]; [21]): > 1000 mg/kg
- LD50 at 48 h (acute toxicity, rat): > 1000 mg/kg
- LD50 at 48 h (acute toxicity, cat; [22]): > 1000 mg/kg

Structure (SMILES): NC(=O)c1ccccc1NCCN1CCN(c2ccccc2)CC1 [Example I, 2-[2-(4-[1-Phenyl]piperazinyl)ethylamino]-benzamide]
- antagonism of morphine analgesia (morphine analgesia): at lower dose levels antagonism of morphine analgesia was observed in rats
- analgesic activity compared with morphine, hot plate and writhing tests [2]: approximately equivalent to or slightly more active than morphine
- oral versus parenteral analgesic activity [2]: more active by the parenteral routes than by the oral route
- selectivity ratio (in vivo [1]; mouse): > 300
- LD50 (in vivo [1]; mouse, read-out: acute toxicity (LD50)): 800 to 1000 mg/kg
- antagonism of metrazol induced convulsions ([3]; subcutaneous): not effective by the subcutaneous route
- selectivity ratio ([4]; po): 1.9
- selectivity ratio [4, 23]: > 340
- selectivity ratio ([4]; sc): 6.3
- selectivity ratio ([4]; sc, Mouse s.c., read-out: LD50 /ED50 Writhing): > 620
- ED50 ([5]; po, Mouse p.o.): 2.9 mg/kg
- ED50 ([5]; sc, Mouse s.c.): 1.6 mg/kg
- LD50 (in vivo [6]): 800 mg/kg
- NOAEL (in vivo [6]): 2 mg/kg
- ED50 (heat stimulus [7]; sc, Sub. cut., read-out: Rat Tail Flick ED50): > 18 mg/kg
- ratio of ED50 corneal/ED50 pinna [8]: approximately 0.5
- tranquilizer classification from corneal/pinna ratio [8]: within the range of ratios expected with sedatives (0.3 to 0.7)
- NARCOTIC ANTAGONISM (NARCOTIC ANTAGONISM): Positive
- suppression of intestinal motility (intestinal motility): less important
- antagonism of oxymorphone induced mydriasis [9]: effective in antagonizing oxymorphone induced mydriasis
- selectivity ratio [10]: 2
- selectivity ratio ([10]; Rat Sub. cut, read-out: LD50 /ED50 Writhing): 400
- ED50 ([11]; sc, Rat Sub. cut, read-out: Writhing ED50): 2.5 mg/kg
- selectivity ratio (in vivo [12]; ip): 1.2
- selectivity ratio (in vivo [12]; po): 1.9
- selectivity ratio (in vivo [12]; sc): 2.4
- Amount to produce a 50% block of Histamine [13]: 0.8 micrograms
- antihistaminic activity compared with diphenhydramine [13]: about half as active as the standard
- hypothermic effect [14]: also effective in this respect
- selectivity ratio ([15]; ip, Mouse i.p.): 670
- selectivity ratio ([15]; po, Mouse p.o.): > 330
- selectivity ratio ([15]; sc, Mouse s.c.): > 240
- ED50 (heat stimulus [16]; ip): 1.5 mg/kg
- ED50 (heat stimulus [16]; po): 3 mg/kg
- ED50 (heat stimulus [16]; sc): 4.1 mg/kg
- Amount to produce a 50% block of Acetylcholine [17]: 126 micrograms

Structure (SMILES): CN1CC[C@]23c4c5ccc(O)c4O[C@H]2[C@@H](O)C=C[C@H]3[C@H]1C5 [Morphine, reference compound]
- Rat Tail Flick ED50 (heat stimulus [7]; Sub. cut.): 15 mg/kg
- NARCOTIC ANTAGONISM (NARCOTIC ANTAGONISM): Negative
- MOUSE TAIL STIMULATION ED50 (MOUSE TAIL STIMULATION): 1.5 mg/kg

Structure (SMILES): O=C1NC(c2ccccc2)N(CCN2CCN(c3ccccc3)CC2)c2ccccc21 (stereo not shown) [Example II, 1-[2-(1-Phenyl-4-piperazinyl)ethyl]-2-phenyl-1,2,3,4-tetrahydro-4-quinazolinone]
- antagonism of morphine analgesia (morphine analgesia): not effective by the subcutaneous route
- oral versus parenteral analgesic activity [2]: more active by the oral than the parenteral route
- LD50 at 48 h (in vivo [1]; [19]): > 2500 mg/kg
- LD50 (in vivo [1]; mouse, mice, all routes tested, read-out: acute toxicity): > 1000 mg/kg
- selectivity ratio (in vivo [1]; mouse, oral route, read-out: therapeutic index (lethal dose to effective dose)): > 300
- LD50 at 48 h (in vivo [1]; [20]): > 10000 mg/kg
- LD50 at 48 h (in vivo [1]; [21]): > 1000 mg/kg
- antagonism of metrazol induced convulsions ([3]; oral): able to antagonize these metrazol induced convulsions in mice
- LD50 at 48 h (acute toxicity, rat): > 1000 mg/kg
- selectivity ratio (in vivo [18]): ~10
- selectivity ratio ([4]; po): 9
- selectivity ratio [4, 23]: > 91
- activity relative to morphine, writhing test ([5]; mice): approximately one third
- ED50 ([5]; po, Mouse p.o.): 11 mg/kg
- LD50 at 48 h (acute toxicity, cat; [22]): > 1000 mg/kg
- LD50 at 48 h (acute toxicity, cat; po, Cat p.o., preliminary result): > 1000 mg/kg
- ED50 (heat stimulus [7]; po, read-out: D'Amour Smith Rat Tail Flick ED50): > 100 mg/kg
- ratio of ED50 corneal/ED50 pinna [8]: greater than 10
- tranquilizer classification from corneal/pinna ratio [8]: classified as possessing tranquilizer activity
- suppression of intestinal motility (intestinal motility): effective in suppressing intestinal motility in mice
- suppression of intestinal motility (intestinal motility; listed as 740-222): reduces gut motility
- antagonism of oxymorphone induced mydriasis [9]: slight antagonism of oxymorphone induced mydriasis in mice by the intraperiteneal route only
- selectivity ratio ([10]; po): 7.1
- selectivity ratio ([10]; po, Rat p.o., read-out: LD50 /ED50 Writhing): 71
- ED50 ([11]; Rattus norvegicus, rats, oral, read-out: dose at which writhing syndrome is 50% blocked): 10 mg/kg
- ED50 ([11]; po, Rat p.o., read-out: Writhing ED50): 14 mg/kg
- selectivity ratio (in vivo [12]; ip): 3.4
- selectivity ratio (in vivo [12]; po): 5
- solubility (solubility): low solubility
- Amount to produce a 50% block of Histamine [13]: 0.5 micrograms
- antihistaminic activity compared with diphenhydramine [13]: about the same activity as the standard antihistaminic diphenhydramine
- hypothermic effect [14]: effectively reduced body temperature in normal mice
- selectivity ratio ([15]; ip, Mouse i.p.): > 17
- selectivity ratio ([15]; po, Mouse p.o.): > 50
- ED50 (heat stimulus [16]; ip): 52 mg/kg
- ED50 (heat stimulus [16]; po): 20 mg/kg
- ED50 (heat stimulus [16]; sc): > 562 mg/kg
- analgesic activity compared with codeine, hot plate (heat stimulus [16]; mice, oral, words): of the same order as codeine
- analgesic activity compared with morphine, hot plate (heat stimulus [16]; mice, oral, words): slightly less than morphine
- Amount to produce a 50% block of Acetylcholine [17]: 1000 micrograms

Structure (SMILES): COc1ccc2c3c1O[C@H]1[C@@H](O)C=C[C@H]4[C@@H](C2)N(C)CC[C@@]341 [Codeine, reference compound]
- LD50 at 48 h (in vivo [1]; mouse, ip): 104 mg/kg
- LD50 at 48 h (in vivo [1]; mouse, po): 540 mg/kg
- selectivity ratio ([4]; po, Mouse p.o., HNSD = highest dose without gross symptoms, read-out: HNSD./ED50 Writhing): 5.9
- selectivity ratio [4, 23]: 32
- ED50 ([5]; po, Mouse p.o.): 17 mg/kg
- effect of narcotic agents on pupil size ([9]; mice): no change or an increase in the pupil size
- selectivity ratio (in vivo [12]; ip, HNSD./ED50 H.P., Mouse i.p., HNSD = highest dose without gross symptoms): 2.6
- selectivity ratio (in vivo [12]; ip, LD50 /ED50 H.P., Mouse i.p.): 8.7
- selectivity ratio (in vivo [12]; po, HNSD./ED50 H.P., Mouse p.o., HNSD = highest dose without gross symptoms): 5
- selectivity ratio (in vivo [12]; po, LD50 /ED50 H.P., Mouse p.o.): 27
- ED50 (heat stimulus [16]; ip): 12 mg/kg
- ED50 (heat stimulus [16]; po): 20 mg/kg
